In PubChem BioAssay (NCI):
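Protocol summary: plate cells (96-well), add compound at 5 concentrations, incubate 48 h, interpolate endpoints linearly. At the TGI there is no net growth.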

How the values were obtained:
Experiment in all cases: NCI-60 cell line screen, 48 h
[1] = test system: A498 renal
[2] = test system: NCI-H460 lung
[3] = test system: SNB-75 CNS
[4] = test system: HOP-18 NSCLC
[5] = test system: SR leukemia
[6] = test system: LXFL 529 NSCLC
[7] = test system: SN12C renal
[8] = test system: SK-OV-3 ovarian
[9] = test system: EKVX NSCLC
[10] = test system: DMS 273 small cell lung
[11] = test system: UACC-257 melanoma
[12] = test system: M19-MEL melanoma
[13] = test system: ACHN renal
[14] = test system: SNB-78 CNS
[15] = test system: SNB-19 CNS
[16] = test system: DMS 114 small cell lung
[17] = test system: HS 578T breast
[18] = test system: MCF7 breast
[19] = test system: NCI/ADR-RES ovarian
[20] = test system: SN12K1 renal

Row | Compound | TGI [1] [µM] | TGI [2] [µM] | TGI [3] [µM] | TGI [4] [µM] | TGI [5] [µM] | TGI [6] [µM] | TGI [7] [µM] | TGI [8] [µM] | TGI [9] [µM] | TGI [10] [µM] | TGI [11] [µM] | TGI [12] [µM] | TGI [13] [µM] | TGI [14] [µM] | TGI [15] [µM] | TGI [16] [µM] | TGI [17] [µM] | TGI [18] [µM] | TGI [19] [µM] | TGI [20] [µM]
1 | Nc1nc(Cl)cc(NCCCCCCCCCCCCNc2cc(Cl)nc(N)n2)n1 | > 100 | > 100 | 34 | > 100 | > 100 | 53 | > 100 | > 100 | > 100 | 58 | > 100 | > 100 | – | – | – | – | – | – | – | –
2 | CC(=O)c1cccc(NC(=O)C(=O)C(C(=O)c2ccccc2F)C2OC(=O)c3ccccc32)c1 (stereo not drawn) | > 100 | > 100 | 76.3 | – | 54.9 | > 100 | > 100 | > 100 | > 100 | > 100 | > 100 | > 100 | > 100 | > 100 | > 100 | 90 | – | – | – | –
3 | O=C1CCc2cc3c(cc21)CC1(Cc2cc4c(cc2C1)CCCC4)C3 | > 100 | > 100 | 75.1 | – | 47.7 | – | > 100 | > 100 | > 100 | – | > 100 | – | > 100 | – | > 100 | – | 90.2 | > 100 | > 100 | –
4 | ClCc1ccc2ccc3ccc(CCl)nc3c2n1 | 22.4 | 19.6 | 5.83 | 8.77 | – | – | – | – | > 47.5 | – | 3.38 | 3.97 | – | 10.3 | 27.9 | 4.26 | – | 2.74 | 3.66 | 4.4
